According to ChEMBL document CHEMBL6096728, “Simultaneous Induction of Immunogenic Pyroptosis and PD-L1 Downregulation by One Single Photosensitizer for Synergistic Cancer Photoimmunotherapy” (J Med Chem, 2025):
Calls of active or inactive are those of the source. The rule behind the calls is not given here.

What was measured:
[1] = Induction of ROS generation under LED light irradiation assessed as increase in superoxide anion radical level by measuring increase in DHR123 fluorescence at 5 uM measured for 7 mins by fluorescence based analysis; type: functional
[2] = test system: 4T1; assay: (§1) Induction of intracellular ROS generation in mouse 4T1 cells assessed as increase in fluorescence intensity at 0.1 uM preincubated for 2 hrs followed by compound washout further incubated with DCFH-DA probe for 30 mins under light irradiation of 20 mW.cm/2 at 400 to 700nm measured after 10 mins by flow cytometry analysis; type: functional, cell-based
[3] = test system: 4T1; assay: as §1, with “10 mins in presence of NaN3 by flow” for “10 mins by flow”; type: functional, cell-based
[4] = test system: MDA-MB-231; assay: Cytotoxicity against human MDA-MB-231 cells at 0.01 to 10 uM incubated for 2 hrs under dark condition by CCK-8 method; type: functional, cell-based; conditions: dose 0.01-10 µM
[5] = test system: 4T1; assay: Cytotoxicity against mouse 4T1 cells at 0.01 to 10 uM incubated for 2 hrs under dark condition by CCK-8 method; type: functional, cell-based; conditions: dose 0.01-10 µM
[6] = test system: MDA-MB-231; assay: Induction of cell death in human MDA-MB-231 cells assessed as increase in red fluorescence at 0.5 uM incubated for 24 hrs followed by light irradiation of 20 mW.cm/2 at 400 to 700nm for 10 mins by Calcein-AM/PI staining based analysis; type: functional
[7] = test system: MDA-MB-231; assay: Induction of cell death in human MDA-MB-231 cells assessed as decrease in green fluorescence at 0.5 uM incubated for 24 hrs followed by light irradiation of 20 mW.cm/2 at 400 to 700nm for 10 mins by Calcein-AM/PI staining based analysis; type: functional
[8] = test system: MDA-MB-231; assay: Inhibition of human MDA-MB-231 cells at 0.1 uM under light irradiation of 20 mW.cm/2 at 400 to 700nm measured after 14 days by crystal violet staining based assay; type: functional, cell-based; conditions: time 14.0 day
[9] = test system: 4T1; assay: Inhibition of mouse 4T1 cells at 0.1 uM under light irradiation of 20 mW.cm/2 at 400 to 700nm measured after 14 days by crystal violet staining based assay; type: functional, cell-based; conditions: time 14.0 day
[10] = test system: MDA-MB-231; assay: Induction of pyroptosis in human MDA-MB-231 cells assessed as formation of bubble-like protrusion on cell surface at 0.25 uM preincubated with compound for 12 hrs followed by light irradiation of 20 mW.cm/2 at 400 to 700nm for 10 mins by confocal fluorescence microscopy analysis; type: functional, cell-based
[11] = test system: 4T1; assay: Induction of pyroptosis in mouse 4T1 cells assessed as cell swelling at 0.5 uM preincubated with compound for 4 hrs followed by light irradiation of 20 mW.cm/2 at 400 to 700nm for 10 mins by confocal fluorescence microscopy analysis; type: functional, cell-based
[12] = test system: MDA-MB-231; assay: Induction of pyroptosis in human MDA-MB-231 cells assessed as effect on GSDMD-N expression level at 0.1 to 0.5 uM preincubated with compound for 12 hrs followed by light irradiation of 20 mW.cm/2 at 400 to 700nm for 10 mins by Western blot analysis; type: functional, cell-based; conditions: dose 0.1-0.5 µM
[13] = test system: MDA-MB-231; assay: Induction of pyroptosis in human MDA-MB-231 cells assessed as upregulation of GSDME-N expression level at 0.1 to 0.5 uM incubated with compound for 12 hrs under dark condition by Western blot analysis; type: functional, cell-based; conditions: dose 0.1-0.5 µM
[14] = test system: MDA-MB-231; assay: Induction of pyroptosis in human MDA-MB-231 cells assessed as upregulation of caspase-3 expression level at 0.1 to 0.5 uM incubated with compound for 12 hrs under dark condition by Western blot analysis; type: functional, cell-based; conditions: dose 0.1-0.5 µM
[15] = test system: MDA-MB-231; assay: Downregulation of PD-L1 expression level in human MDA-MB-231 cells at 0.1 to 0.5 uM incubated for 24 hrs under light irradiation of 20 mW.cm/2 at 400 to 700nm for 10 mins by Western blot analysis; type: functional, cell-based; conditions: dose 0.1-0.5 µM
[16] = organism: Homo sapiens; assay: Binding affinity to PD-L1 (unknown origin) by streptavidin-biotin pull down assay
[17] = test system: MDA-MB-231; assay: Downregulation of PD-L1 expression level in human MDA-MB-231 cells at 0.5 uM preincubated with chloroquine followed by compound addition and measured after 24 hrs under light irradiation of 20 mW.cm/2 at 400 to 700nm for 10 mins by Western blot analysis; type: functional, cell-based
[18] = Drug accumulation in BALB/c mouse tumor implanted with mouse 4T1 cells assessed as increase in fluorescence intensity at 25 mg/kg, iv measured after 3 hrs by imaging based analysis; type: ADME, organism-based, Neoplasm; conditions: in vivo
[19] = Drug accumulation in BALB/c mouse tumor implanted with mouse 4T1 cells assessed as increase in fluorescence intensity at 25 mg/kg, iv measured after 12 hrs by imaging based analysis; type: ADME, organism-based, Neoplasm; conditions: in vivo
[20] = Toxicity in BALB/c mouse assessed as effect on kidney at 25 mg/kg, iv measured after 14 days by H and E staining based analysis; type: organism-based; conditions: in vivo, 336 h, time 14 day
[21] = Toxicity in BALB/c mouse assessed as effect on kidney at 25 mg/kg, iv measured after 14 days under light irradiation of 300 mW.cm/2 at 400 to 700nm measured after 5 mins; type: organism-based; conditions: in vivo, 336 h, 0.7 µM, time 14 day
[22] = Toxicity in BALB/c mouse assessed as effect on platelets at 25 mg/kg, iv measured after 14 days; type: organism-based; conditions: in vivo, 336 h, time 14 day
[23] = test system: 4T1; assay: Antitumor immunity against mouse 4T1 cells implanted in BALB/c mouse model assessed as upregulation of proportion of macrophage in lymph node at 25 mg/kg, iv measured after 14 days under light irradiation of 300 mW.cm/2 at 400 to 700nm measured after 5 mins by flow cytometry analysis; type: functional, organism-based; conditions: time 14.0 day
[24] = test system: 4T1; assay: Antitumor immunity against mouse 4T1 cells implanted in BALB/c mouse model assessed as increase in IFN-gamma secretion in tumors at 25 mg/kg, iv measured after 14 days under light irradiation of 300 mW.cm/2 at 400 to 700nm measured after 5 mins by ELISA method; type: functional, organism-based; conditions: time 14.0 day
[25] = test system: 4T1; assay: Antitumor immunity against mouse 4T1 cells implanted in BALB/c mouse model assessed as increase in IL-6 secretion in tumors at 25 mg/kg, iv measured after 14 days under light irradiation of 300 mW.cm/2 at 400 to 700nm measured after 5 mins by ELISA method; type: functional, organism-based; conditions: time 14.0 day
[26] = test system: 4T1; assay: Antitumor immunity against mouse 4T1 cells implanted in BALB/c mouse model assessed as increase of CD4+ T cells in lymph node at 25 mg/kg, iv measured after 14 days under light irradiation of 300 mW.cm/2 at 400 to 700nm measured after 5 mins […]; type: functional, organism-based; conditions: time 14.0 day
[27] = test system: 4T1; assay: Antitumor immunity against mouse 4T1 cells implanted in BALB/c mouse model assessed as increase in proportion of tumor infiltrating CD4+ T cells at 25 mg/kg, iv measured after 14 days under light irradiation of 300 mW.cm/2 at 400 to 700nm measured after 5 mins by immunofluorescence analysis; type: functional, organism-based; conditions: time 14.0 day
[28] = test system: 4T1; assay: Antitumor immunity against mouse 4T1 cells implanted in BALB/c mouse model assessed as increase in proportion of tumor infiltrating CD8+ T cells at 25 mg/kg, iv measured after 14 days under light irradiation of 300 mW.cm/2 at 400 to 700nm measured after 5 mins by immunofluorescence analysis; type: functional, organism-based; conditions: time 14.0 day

- Drug uptake [18]: Active
- Drug uptake [19]: Active
Compound: O=c1cc2sc3cc(N4CCNCC4)ccc3nc-2c2ccccc12
- Activity [1]: Active
- Activity [2]: Active
- Activity [3]: inactive
- Activity [4]: Active; Compound Showed Low Toxicity
- Activity [5]: Active; Compound Showed Low Toxicity
- Activity [6]: Active
- Activity [7]: Active
- inhibition [8]: Active
- inhibition [9]: Active
- Activity [10]: Active
- Activity [11]: Active
- Activity [12]: inactive
- Activity [13]: Active; Compound Showed Negligible Changes
- Activity [14]: Active; Compound Showed Negligible Changes
- Activity [15]: Active
- Activity [16]: Not active; Compound Rarely Binds To Pd-L1
- Activity [17]: inactive
- Activity [20]: Non-toxic
- Activity [21]: Non-toxic
- Activity [22]: Non-toxic
- Activity [23]: Active
- Activity [24]: Active
- Activity [25]: Active
- Activity [26]: Active
- Activity [27]: Active
- Activity [28]: Active
